Data reported in patent US10227315B2, “Mitochondrial uncouplers for treatment of metabolic diseases and cancer” (RUTGERS, THE STATE UNIVERSITY OF NEW JERSEY, priority 2016, dated 2019).

Legend:
[1] = system: mouse pancreatic cancer cell Panc 2 cells, or human pancreatic cancer Panc 1 cells; assay: Cell cycle progression (G0/G1 arrest), PI staining, flow cytometry; assay type: cell-based; settings: 48 h treatment
Description: The effect of example compounds on cell cycle progression was analyzed. The tumor cells, mouse pancreatic cancer cell Panc 2 cells, or human pancreatic cancer Panc 1 cells, were treated with the individual compounds at concentrations that were efficacious for mitochondrial uncoupling for 48 h, whereas the control group was treated with vehicle DMSO. Cells were then fixed with ice-cold 70% ethanol on ice for 30 minutes. After that, 5 μl of propidium iodide (PI) (Sigma, P 4170, 1 mg/ml) solution and 50 μl of RNAse A (Sigma, R-4875) solutions were added to the fixed cells, which were then kept for 30 minutes in the dark at room temperature. The cell cycle profile of the cells was analyzed by flow cytometry. […] Table IV below summarizes the activity of other example compounds on inducing G0/G1 cell cycle arrest.

[2] = system: Cancer cells; assay: Clonogenicity of cancer cells, colony counting; assay type: cell-based; settings: 200 cells per well, 10 days
Description: The impact of example compounds on clonogenicity was analyzed. Cancer cells were plated in 6-well plates at 200 cells per well. Cells were treated with individual compounds at various concentrations. Cells were maintained with changes of the medium plus compounds for 10 days. The colonies were then fixed in 1:3 Acetic acid—Methanol solution for 5 minutes, stained with 0.02% crystal violet for 20 minutes and counted.

[3] = system: Human colon cancer HCT116 cell line and human lung cancer cell line H1299; assay: Cancer cell growth inhibition, NCI protocol, SRB staining; assay type: cell-based; settings: 48 h incubation, HCT116 and H1299 cells, read-out: GI50, 50% growth inhibition activity
Description: The effect of example compounds on cancer cell growth was evaluated. The cell growth inhibition assays were performed using a protocol standardized by National Cancer Institute (NCI) for evaluating anti-cancer drugs (https://dtp.cancer.gov/discovery_development/nci-60/methodology.htm). Human colon cancer HCT116 cell line and human lung cancer cell line H1299 were used for the assays. The human tumor cells were inoculated into 96 well microtiter plates. After cell inoculation, the microtiter plates were incubated for cell growth for 24 h prior to addition of compounds. After 24 h, two plates of each cell line were fixed in situ with TCA, to represent a measurement of the cell population for each cell line at the time of compound addition (Tz). Test compounds were solubilized in dimethyl sulfoxide, At the time of test compound addition, five 10-fold or ½ log serial dilutions were made to provide a total of five test compound concentrations plus control. Aliquots of 100 μl of these different test compound dilutions were added to the appropriate microtiter wells already containing 100 μl of medium, resulting in the required final test compound concentrations. Following test compound addition, the plates were incubated for an additional 48 h. The assay was terminated by the addition of cold TCA, Cells were fixed in situ with 50 μl of cold 50% (w/v) TCA (final concentration, 10% TCA), washed five times with tap water and air dried. Sulforhodamine B (SRB) solution (100 ul) at 0.4% (w/v) in 1% acetic acid was added to each well, and plates were incubated for 10 minutes at room temperature. After staining, unbound dye was removed by washing five times with 1% acetic acid and the plates were air dried. […] Using the seven absorbance measurements [time zero, (Tz), control growth, (C), and test growth in the presence of compound at the five concentration levels (Ti)], the percentage growth was calculated at each of the test compound concentrations levels.

[4] = system: mouse myoblast C2C12 cells; assay: Oxygen consumption rate (OCR) assay with Seahorse XF96 or XF24, mitochondrial uncoupling; assay type: cell-based; settings: 10% fetal bovine serum, in the presence of oligomycin 2.5 μM, read-out: Cmin (minimal concentration to induce ATP synthase-independent OCR increase)
From the text: By definition, mitochondrial uncoupling is the decoupling of mitochondrial electron transport chain activity (mitochondrial oxidation) from ATP synthesis by mitochondrial ATP synthase. Technically, mitochondrial uncoupling activity is defined by the ability of a chemical compound to induce oxygen consumption of cells or isolated mitochondria in the presence of a mitochondrial ATP synthase inhibitor such as oligomycin. Accordingly, we determined mitochondrial uncoupling activity by oxygen consumption rate (OCR) assay with a Seahorse XF96 or a Seahorse XF24 instrument following the vendor's instruction, using mouse myoblast C2C12 cells growing in medium containing 10% fetal bovine serum. […] The minimal concentration (Cmin) of each compound under which OCR is induced in the presence of oligomycin, was determined.

[5] = system: NIH-3T3 cells, or HepG2 cells; assay: Mitochondrial membrane potential assay, TMRE staining; assay type: cell-based; settings: 2 h; two hours treatment, TMRE 100 nM; read-out: EC50, mitochondrial membrane potential reduction (TMRE staining reduced to about 50%)
Description: Mitochondrial uncoupling may also lead to a reduction of mitochondrial membrane potential. We performed mitochondrial membrane potential assay using TMRE (tetramethylrhodamine ethyl ester) staining method with cultured mammalian cells, the NIH-3T3 cells, or HepG2 cells. Cells were seeded onto 6-well plates and cultured in DMEM medium supplemented with 10% fetal bovine serum and 2 mM glutamine. Cells were allowed to grow to logarithmic growth phase prior to experiments. The cells were treated with each individual compound at various concentrations for two hours, followed by staining with TMRE at final concentration of 100 nM for 15 minutes. The cells were then washed once with PBS, and examined under fluorescence microscopy. Cells treated with various concentrations of niclosamide ethanolamine were used as positive control. Reduction of mitochondrial TMRE staining was estimated as a quantification of mitochondrial uncoupling activity. […] The following table (Table II) summarizes the activity of individual compounds in reducing mitochondrial membrane potential in cultured mammalian cells.

[6] = system: Panc 2 cells injected into the spleen of NOD-scid mice; assay: Hepatic metastasis of pancreatic cancer mouse model; assay type: in vivo; settings: chow containing 750 ppm compound
Description: The in vivo anti-cancer efficacy of an example compound, Compound 28, was examined using a well-established hepatic metastasis of pancreatic cancer mouse model. The mouse pancreatic cancer cells, Panc 2 cells (0.25 million cells), were injected into the spleen of immune compromised NOD-scid mice. The mice were randomized to two groups (n=6 each group), one group was fed normal chow, the second group was fed chow containing 750 ppm Compound 28. Three weeks later, mice were sacrificed and the hepatic metastasis of the pancreatic cancer was observed (FIGS. 5A-5B) and quantified (FIGS. 6A-6B) in control and Compound 28 treated mice.

[7] = system: HFD-induced diabetic mouse model; assay: High-fat diet (HFD)-induced fatty liver and diabetic mouse model; assay type: in vivo; settings: HFD containing 600 ppm compound
From the text: To test the efficacy of compounds in treating type 2 diabetes in vivo, we used Compound 28 as an example, and determined its effect in reducing blood glucose, reducing blood insulin concentration, improving insulin sensitivity and reducing fatty liver in a clinically relevant mouse model, the HFD-induced fatty liver and diabetic model. C57B6/J male mice were fed HFD (60% calorie from fat) for 4 months, starting at age of 2 months, to induce high blood glucose, high blood insulin, and insulin tolerance symptoms of type 2 diabetes as well as fatty liver. The mice then either continued with HFD or with HFD containing 600 ppm Compound 28. Blood glucose, blood insulin levels were measured and glucose tolerance assay was performed to measure insulin sensitivity. The mice were sacrificed and the effect of Compound 28 on fatty liver development was evaluated by comparing the liver weight.

Compound	effective concentration that can arrest cell cycle at G0/G1 phase [1]	IC95, Concentration that reduces clonogenicity by 95% [2]	GI50 [3]	minimal effective concentration [4]	EC50 [5]	further results
Cc1cc(Cl)cc(C(=O)Nc2nc3ccc(C(F)(F)F)cc3s2)c1O [Compound 1, 5-Chloro-2-hydroxy-3-methyl-N-(6-(trifluoromethyl)benzo[d]thiazol-2-yl)benzamide]	*** (*** <10 μM)	*** (*** <10 μM)	–	–	–	–
O=C(Nc1nc2c(F)cc(F)cc2s1)c1cc(Cl)ccc1O [Compound 23, 5-Chloro-N-(4,6-difluorobenzo[d]thiazol-2-yl)-2-hydroxybenzamide]	–	–	< 10 µM	< 10 µM	–	–
O=C(Nc1nc2c(C(F)(F)F)cc(F)cc2s1)c1cc(Cl)ccc1O [Compound 24, 5-Chloro-N-(6-fluoro-4-(trifluoromethyl)benzo[d]thiazol-2-yl)-2-hydroxybenzamide]	–	–	< 10 µM	< 10 µM	< 10 µM	–
CCc1cc(Cl)cc(C(=O)Nc2nc3ccc(C(F)(F)F)cc3s2)c1O [Compound 27, 5-Chloro-3-ethyl-2-hydroxy-N-(6-(trifluoromethyl)benzo[d]thiazol-2-yl)benzamide]	*** (*** <10 μM)	*** (*** <10 μM)	< 10 µM	< 10 µM	< 10 µM	–
Cc1cc(Cl)cc(C(=O)Nc2nc3ccc(C(F)(F)F)cc3s2)c1O [Compound 28, 5-Chloro-2-hydroxy-3-methyl-N-(6-(trifluoromethyl)benzo[d]thiazol-2-yl)benzamide ethanolamine]	–	–	< 10 µM	< 10 µM	–	blood plasma concentrations [6]: in the range of efficacious concentration for uncoupling mitochondria; hepatic tumor metastasis ([6]; three weeks): little or no hepatic tumor metastasis; metastatic tumor volume ([6]; three weeks): dramatically reduced; number of metastatic tumor nodules ([6]; three weeks): dramatically reduced; blood glucose concentration ([7]; C57B6/J male mice): markedly reduced; blood insulin concentration ([7]; C57B6/J male mice): markedly reduced; fatty liver weight caused by high fat diet ([7]; C57B6/J male mice): reduced fatty liver weight; insulin sensitivity ([7]; C57B6/J male mice): improves insulin sensitivity; plasma concentration [7]: at an efficacious concentration that uncouples mitochondria
Cc1cc(Cl)cc(C(=O)Nc2nc3c(C(F)(F)F)cccc3s2)c1O [Compound 31, 5-Chloro-2-hydroxy-3-methyl-N-(4-(trifluoromethyl)benzo[d]thiazol-2-yl)benzamide]	–	–	< 10 µM	< 10 µM	–	–
CC(C)c1cc(Cl)cc(C(=O)Nc2nc3ccc(C(F)(F)F)cc3s2)c1O [Compound 38, 5-Chloro-2-hydroxy-3-isopropyl-N-(6-(trifluoromethyl)benzo[d]thiazol-2-yl)benzamide]	*** (*** <10 μM)	*** (*** <10 μM)	< 10 µM	< 10 µM	< 10 µM	–
Cc1cc(Cl)cc(C(=O)Nc2nc3c(F)cc(F)cc3s2)c1O [Compound 40, 5-Chloro-N-(4,6-difluorobenzo[d]thiazol-2-yl)-2-hydroxy-3-methylbenzamide]	–	–	< 10 µM	< 10 µM	< 10 µM	–
